Assay: Plasma pharmacokinetic comparison of zaleplon free base and HCl salt after single oral doses
Type: in vivo
Conditions: male beagle dogs; for AUC(0-inf) / AUC(0-t) / Cmax / Tmax: male, beagle, dog, plasma, po
[1] = 2.5 mg HCl Salt/kg, single oral dose 2.5 mg HCl Salt/kg, Mean of 5 dogs
[2] = 2.5 mg HCl Salt/kg, single oral dose 2.5 mg HCl Salt/kg, dog CLT-2
[3] = 2.5 mg HCl Salt/kg, single oral dose 2.5 mg HCl Salt/kg, dog H0M004
[4] = 2.5 mg HCl Salt/kg, single oral dose 2.5 mg HCl Salt/kg, dog H1B108
[5] = 2.5 mg HCl Salt/kg, single oral dose 2.5 mg HCl Salt/kg, dog TDR2
[6] = 2.5 mg HCl Salt/kg, single oral dose 2.5 mg HCl Salt/kg, dog TKR-2
[7] = 5 mg/kg, single oral dose 5.0 mg Free Base/kg, Mean of 5 dogs
[8] = 5 mg/kg, single oral dose 5.0 mg Free Base/kg, dog CLT-2
[9] = 5 mg/kg, single oral dose 5.0 mg Free Base/kg, dog H0M004
[10] = 5 mg/kg, single oral dose 5.0 mg Free Base/kg, dog H1B108
[11] = 5 mg/kg, single oral dose 5.0 mg Free Base/kg, dog TDR2
[12] = 5 mg/kg, single oral dose 5.0 mg Free Base/kg, dog TKR-2

Experimental: The test compounds were prepared in 0.5% methylcellulose. The target concentrations of the free base and HBr salt were 1.0 and 1.34 mg/mL (equivalent to 1 mg of the free base), respectively. The liquid suspensions were administered via oral gavage. Prior to removing the gavage tube, the tube was flushed with approximately 5 mL of water.
Blood (approximately 2 mL) was collected from a jugular vein via syringe and needle and transferred into tubes containing K2EDTA anticoagulant predose and at 0.5, 1, 2, 3, 4, 6, 8, 12, and 24 hours postdose. Blood was maintained on wet ice, in chilled Kryoracks, or at approximately 5° C. prior to centrifugation to obtain plasma. Centrifugation began within 1 hour of collection. Plasma was placed on dry ice prior to storage at approximately −70° C. Plasma samples, remaining test compounds, and remaining dose formulations were shipped on dry ice to the analysis site and stored at approximately −70° C. before and after analysis. Samples were analyzed using an LC/MS/MS method. Plasma concentration-time data for each dog and formulation were analyzed using a noncompartmental model assumption with WinNonlin, version 4.1 (Pharsight Corporation, Mountain View, Calif.). All calculations were based on the nominal times as actual sample collection times departed minimally from the schedule times.

In the case of `CCN(C(C)=O)c1cccc(-c2ccnc3c(C#N)cnn23)c1.Cl` [zaleplon HCl, Zaleplon Hydrochloride], the “Cmax compared with the free base” value (oral, calculated on a mg/kg dosing basis) is reported as “essentially equivalent”, the AUC(0-inf) [1] is reported as 2320 ng·h/mL and the AUC(0-t) [1] is reported as 2310 ng·h/mL. The Cmax [1] was 790 ng/mL, the Tmax [1] was 33 min and the AUC(0-inf) [2] was 1820 ng·h/mL. It also gave an AUC(0-t) [2] of 1820 ng·h/mL, a Cmax [2] of 1010 ng/mL and a Tmax [2] of 15 min. It also gave an AUC(0-inf) [3] of 2010 ng·h/mL, an AUC(0-t) [3] of 2010 ng·h/mL and a Cmax [3] of 642 ng/mL. The Tmax [3] was 30 min, the AUC(0-inf) [4] was 1360 ng·h/mL and the AUC(0-t) [4] was 1360 ng·h/mL. For the same molecule, the Cmax [4] was 587 ng/mL, the Tmax [4] was 60 min and the AUC(0-inf) [5] was 2650 ng·h/mL. It also gave an AUC(0-t) [5] of 2650 ng·h/mL, a Cmax [5] of 820 ng/mL and a Tmax [5] of 30 min. It also gave an AUC(0-inf) [6] of 3760 ng·h/mL, an AUC(0-t) [6] of 3720 ng·h/mL and a Cmax [6] of 896 ng/mL. It also gave a Tmax [6] of 30 min.

In the case of `CCN(C(C)=O)c1cccc(-c2ccnc3c(C#N)cnn23)c1` [zaleplon free base, N-[3-(3-cyanopyrazolo[1,5-a]pyrimidin-7-yl)phenyl]-N-ethylacetamide, reference compound], the Tmax (5 mg Free Base/kg, single oral dose 5.0 mg Free Base/kg, Mean of 5 dogs) is reported as 66 min, the AUC(0-inf) [7] is reported as 6940 ng·h/mL and the AUC(0-t) [7] is reported as 6700 ng·h/mL. The Cmax [7] was 1590 ng/mL, the AUC(0-inf) [8] was 6860 ng·h/mL and the AUC(0-t) [8] was 6840 ng·h/mL. It also gave a Cmax [8] of 1850 ng/mL, a Tmax [8] of 60 min and an AUC(0-inf) [9] of 7000 ng·h/mL. The AUC(0-t) [9] was 6930 ng·h/mL, the Cmax [9] was 1460 ng/mL and the Tmax [9] was 60 min. For the same molecule, the AUC(0-inf) [10] was 3760 ng·h/mL, the AUC(0-t) [10] was 3760 ng·h/mL and the Cmax [10] was 926 ng/mL. It also gave a Tmax [10] of 120 min, an AUC(0-inf) [11] of 2550 ng·h/mL and an AUC(0-t) [11] of 2550 ng·h/mL. For the same molecule, the Cmax [11] was 1100 ng/mL, the Tmax [11] was 30 min and the AUC(0-inf) [12] was 14500 ng·h/mL. The AUC(0-t) [12] was 13400 ng·h/mL, the Cmax [12] was 2630 ng/mL and the Tmax [12] was 60 min.
